IC50 data for 19 compounds are collected here from patent US20260132132A1, “3A,4,5,6-TETRAHYDRO-1 H-PYRAZOLO[3,4-C]PYRIDIN-7(7AH)-ONE DERIVATIVES AS FACTOR XIIA INHIBITORS” (KALVISTA PHARMACEUTICALS LIMITED, priority 2022, published 2026).

SMILES strings stand for the structures.

The target of assay [1] is T1, Human Factor XIIa (hFXIIa) (Homo sapiens, UniProt P00748).
T1 construct: purchased Enzyme Research Laboratories
T1 sequence (P00748 373-615 limits assumed): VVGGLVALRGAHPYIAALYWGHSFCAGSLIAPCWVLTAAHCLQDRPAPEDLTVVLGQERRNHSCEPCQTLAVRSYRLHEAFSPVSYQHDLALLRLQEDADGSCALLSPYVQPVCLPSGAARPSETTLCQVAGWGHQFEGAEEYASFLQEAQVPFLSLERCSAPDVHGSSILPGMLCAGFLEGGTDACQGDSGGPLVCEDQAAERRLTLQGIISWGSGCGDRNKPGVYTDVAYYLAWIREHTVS
T1 sequence (P00748 20-372 partner limits assumed): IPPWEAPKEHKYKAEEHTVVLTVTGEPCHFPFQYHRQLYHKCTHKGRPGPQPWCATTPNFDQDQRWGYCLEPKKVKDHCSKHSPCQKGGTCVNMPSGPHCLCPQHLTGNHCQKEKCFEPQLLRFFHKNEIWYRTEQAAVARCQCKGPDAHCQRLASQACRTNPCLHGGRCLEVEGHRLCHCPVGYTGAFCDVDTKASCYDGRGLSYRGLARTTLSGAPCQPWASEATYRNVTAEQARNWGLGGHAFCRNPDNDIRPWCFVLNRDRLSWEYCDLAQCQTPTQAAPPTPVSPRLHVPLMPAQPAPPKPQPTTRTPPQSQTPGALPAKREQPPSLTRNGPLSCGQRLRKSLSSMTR
Put plainly: Determination of Human Factor XIIa (hFXIIa) inhibition, fluorogenic substrate IC50 assay. Particulars: fluorogenic substrate H-DPro-Phe-Arg-AFC at Km, 25° C., read-out: Human FXIIa IC50. The format is biochemical. The procedure:
Determination of Human Factor XIIa (hFXIIa) inhibition
The Km for the cleavage of the substrate by hFXIIa was determined by standard transformation of the Michaelis-Menten equation, with subsequent inhibition assays performed at substrate Km concentration.

The target of assay [2] is FXa (Homo sapiens, UniProt P00742). Put plainly: Related protease inhibition: FXa, fluorogenic substrate. It is filed as biochemical. As to conditions: fluorogenic substrate at Km, 25° C.; H1-H3 = % activity at 40 μM. On the procedure:
Human serine protease enzyme Plasma Kallikrein, KLK1, FXa, Plasmin, Thrombin and Trypsin were assayed for enzymatic activity using an appropriate fluorogenic substrate at Km concentration, FXIa at fixed substrate concentration of 100 μM and various concentrations of the test compound.

Broadly, the IC50 is the concentration that gives 50% inhibition.

Sequence of FXa (P00742 235-488 limits assumed): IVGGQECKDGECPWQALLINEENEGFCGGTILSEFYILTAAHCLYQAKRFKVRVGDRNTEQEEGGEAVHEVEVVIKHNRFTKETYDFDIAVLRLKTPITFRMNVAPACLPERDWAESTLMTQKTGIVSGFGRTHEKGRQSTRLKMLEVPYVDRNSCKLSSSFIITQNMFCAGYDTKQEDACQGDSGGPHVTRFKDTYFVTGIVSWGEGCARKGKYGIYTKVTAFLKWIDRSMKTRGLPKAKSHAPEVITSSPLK
Sequence of FXa (P00742 41-179 partner limits assumed): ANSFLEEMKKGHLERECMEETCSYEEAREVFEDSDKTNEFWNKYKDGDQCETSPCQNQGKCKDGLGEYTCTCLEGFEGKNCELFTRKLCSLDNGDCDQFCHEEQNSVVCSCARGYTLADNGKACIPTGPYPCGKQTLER

For the compound `Cc1cc(CNC(=O)c2nn(-c3cccc(Cl)c3)c3c2CCN(c2ccc4c(c2)C(=O)N(CC(N)=O)CCO4)C3=O)nn1C` [Example 1393, 6-(4-(2-amino-2-oxoethyl)-5-oxo-2,3,4,5-tetrahydrobenzo[f][1,4]oxazepin-7-yl)-1-(3-chlorophenyl)-N-((1,5-dimethyl-1H-pyrazol-3-yl)methyl)-7-oxo-4,5,6,7-tetrahydro-1H-pyrazolo[3,4-c]pyridine-3-carboxamide], the IC50 in assay [1] was 0.01 to 0.1 µM; in assay [2], 1 to 3 µM.

For `Cc1cccc(-n2nc(C(=O)NCc3cnccc3C)c3c2C(=O)N(c2ccc4c(c2)CN(CCO)CC4)CC3)c1` [Example 2008, 6-(2-(2-hydroxyethyl)-1,2,3,4-tetrahydroisoquinolin-7-yl)-N-((4-methylpyridin-3-yl)methyl)-7-oxo-1-(m-tolyl)-4,5,6,7-tetrahydro-1H-pyrazolo[3,4-c]pyridine-3-carboxamide], the figures for the half-inhibitory concentration (IC50) in assay [1] and in assay [2] were 0.01 to 0.1 µM and 3 to 10 µM, respectively.

On to `Cc1ccncc1CNC(=O)c1nn(-c2cccc(Cl)c2)c2c1CCN(c1ccc3c(c1)C(=O)N(C)[C@@H](CO)CO3)C2=O` [Example 1396, (S)-1-(3-chlorophenyl)-6-(3-(hydroxymethyl)-4-methyl-5-oxo-2,3,4,5-tetrahydrobenzo[f][1,4]oxazepin-7-yl)-N-((4-methylpyridin-3-yl)methyl)-7-oxo-4,5,6,7-tetrahydro-1H-pyrazolo[3,4-c]pyridine-3-carboxamide], for which the IC50 is 0.3 to 1 µM in assay [1] and over 40 µM in assay [2].

Take `Cc1cc(CNC(=O)c2nn(-c3cccc(Cl)c3)c3c2CCN(c2ccc4c(c2)C(=O)N(C)CCC4)C3=O)nn1C` [Example 1238, 1-(3-Chlorophenyl)-N-[(1,5-dimethylpyrazol-3-yl)methyl]-6-(2-methyl-1-oxo-4,5-dihydro-3H-2-benzazepin-8-yl)-7-oxo-4,5-dihydropyrazolo[3,4-c]pyridine-3-carboxamide]: the IC50 was in the range of 0.1 to 0.3 µM in assay [1] and 3 to 10 µM in assay [2].

For the compound `CN1CCc2ccc(N3CCc4c(C(=O)NC5(CO)CC5)nn(-c5cccc(Cl)c5)c4C3=O)cc2C1=O` [Example 1360, 1-(3-chlorophenyl)-N-(1-(hydroxymethyl)cyclopropyl)-6-(2-methyl-1-oxo-1,2,3,4-tetrahydroisoquinolin-7-yl)-7-oxo-4,5,6,7-tetrahydro-1H-pyrazolo[3,4-c]pyridine-3-carboxamide], the IC50 in assay [1] lay in the range of 0.3 to 1 µM; in assay [2], 10 to 40 µM.

As for `CCNC(=O)c1nn(-c2cncc(C)c2)c2c1CCN(c1ccc3c(c1)C(=O)N(C)CC3)C2=O` [Example 2027, N-ethyl-6-(2-methyl-1-oxo-1,2,3,4-tetrahydroisoquinolin-7-yl)-1-(5-methylpyridin-3-yl)-7-oxo-4,5,6,7-tetrahydro-1H-pyrazolo[3,4-c]pyridine-3-carboxamide], the IC50 in assay [1] was 3 to 10 µM; in assay [2], over 40 µM.

On to `CCNC(=O)c1nn(-c2cccc(Cl)c2)c2c1CCN(c1cccc(N3CC4(CC4)CC3=O)c1)C2=O` [Example 1389, 1-(3-chlorophenyl)-N-ethyl-7-oxo-6-(3-(6-oxo-5-azaspiro[2.4]heptan-5-yl)phenyl)-4,5,6,7-tetrahydro-1H-pyrazolo[3,4-c]pyridine-3-carboxamide], for which the IC50 is 10 to 40 µM in assay [1] and over 40 µM in assay [2].

Turning to `COc1ccncc1CNC(=O)c1nn(-c2cccc(Cl)c2)c2c1CCN(c1ccc3c(c1)C(=O)N(C)CC3)C2=O` [Example 1271, 1-(3-chlorophenyl)-N-((4-methoxypyridin-3-yl)methyl)-6-(2-methyl-1-oxo-1,2,3,4-tetrahydroisoquinolin-7-yl)-7-oxo-4,5,6,7-tetrahydro-1H-pyrazolo[3,4-c]pyridine-3-carboxamide], the results for the IC50 in assay [1] and in assay [2] were 0.1 to 0.3 µM and over 40 µM, respectively.

`CCNC(=O)c1nn(-c2cccc(Cl)c2)c2c1CCN(c1cccc(N3CCCS3(=O)=O)c1)C2=O` [Example 1366, 1-(3-chlorophenyl)-6-(3-(1,1-dioxidoisothiazolidin-2-yl)phenyl)-N-ethyl-7-oxo-4,5,6,7-tetrahydro-1H-pyrazolo[3,4-c]pyridine-3-carboxamide]: the figures for the IC50 in assay [1] and in assay [2] were 3 to 10 µM and 10 to 40 µM, respectively.

On to `CCN1CCc2ccc(N3CCc4c(C(=O)NCc5ccccc5)nn(-c5cccc(Cl)c5)c4C3=O)cc2C1` [Example 1021, N-benzyl-1-(3-chlorophenyl)-6-(2-ethyl-1,2,3,4-tetrahydroisoquinolin-7-yl)-7-oxo-4,5,6,7-tetrahydro-1H-pyrazolo[3,4-c]pyridine-3-carboxamide], for which the values for the IC50 in assay [1] and in assay [2] were 0.01 to 0.1 µM and 3 to 10 µM, respectively.

Consider `Cc1cc(CNC(=O)c2nn(-c3cccc(Cl)c3)c3c2CCN(c2ccc4c(c2)C(=O)N(CC(N)=O)CC4)C3=O)n[nH]1` [Example 1321, 6-(2-(2-amino-2-oxoethyl)-1-oxo-1,2,3,4-tetrahydroisoquinolin-7-yl)-1-(3-chlorophenyl)-N-((5-methyl-1H-pyrazol-3-yl)methyl)-7-oxo-4,5,6,7-tetrahydro-1H-pyrazolo[3,4-c]pyridine-3-carboxamide], for which the figures for the IC50 in assay [1] and in assay [2] were 0.01 to 0.1 µM and 1 to 3 µM, respectively.

With `CCOC(=O)c1nn(-c2cccc(Cl)c2)c2c1CCN(c1cccc(-n3ccccc3=O)c1)C2=O` [Example 1350, ethyl 1-(3-chlorophenyl)-7-oxo-6-(3-(2-oxopyridin-1(2H)-yl)phenyl)-4,5,6,7-tetrahydro-1H-pyrazolo[3,4-c]pyridine-3-carboxylate], the IC50 in assay [1] and in assay [2] was 3 to 10 µM in each case.

With `O=C(NCc1cncc(F)c1)c1nn(-c2cccc(Cl)c2)c2c1CCN(c1ccc3c(c1)CN(CCO)CC3)C2=O` [Example 1137, 1-(3-chlorophenyl)-N-((5-fluoropyridin-3-yl)methyl)-6-(2-(2-hydroxyethyl)-1,2,3,4-tetrahydroisoquinolin-7-yl)-7-oxo-4,5,6,7-tetrahydro-1H-pyrazolo[3,4-c]pyridine-3-carboxamide], the IC50 in assay [1] fell in the range of 0.01 to 0.1 µM; in assay [2] it was 10 to 40 µM.

On to `Cc1ccncc1CNC(=O)c1nn(-c2cccc(Cl)c2)c2c1CCN(c1ccc3c(c1)CN(CCO)CC31CC1)C2=O` [Example 1144, 1-(3-Chlorophenyl)-6-(2′-(2-hydroxyethyl)-2′,3′-dihydro-1′H-spiro[cyclopropane-1,4′-isoquinolin]-7′-yl)-N-((4-methylpyridin-3-yl)methyl)-7-oxo-4,5,6,7-tetrahydro-1H-pyrazolo[3,4-c]pyridine-3-carboxamide], for which the IC50 in assay [1] lay in the range of 0.01 to 0.1 µM; in assay [2], 1 to 3 µM.

Consider `Cc1cncc(CNC(=O)c2nn(-c3cccc(Cl)c3)c3c2CCN(c2ccc4c(c2)C(=O)N(C)CC4)C3=O)c1` [Example 1201, 1-(3-chlorophenyl)-6-(2-methyl-1-oxo-1,2,3,4-tetrahydroisoquinolin-7-yl)-N-((5-methylpyridin-3-yl)methyl)-7-oxo-4,5,6,7-tetrahydro-1H-pyrazolo[3,4-c]pyridine-3-carboxamide], for which the IC50 in assay [1] was in the range of 0.1 to 0.3 µM; in assay [2], 10 to 40 µM.

For `Cc1cc(CNC(=O)c2nn(-c3cccc(Cl)c3)c3c2CCN(c2cc4c(cc2F)CCN(CCO)C4)C3=O)[nH]n1` [Example 1125, 1-(3-chlorophenyl)-6-(6-fluoro-2-(2-hydroxyethyl)-1,2,3,4-tetrahydroisoquinolin-7-yl)-N-((3-methyl-1H-pyrazol-5-yl)methyl)-7-oxo-4,5,6,7-tetrahydro-1H-pyrazolo[3,4-c]pyridine-3-carboxamide], the figures for the IC50 in assay [1] and in assay [2] were 0.01 to 0.1 µM and 10 to 40 µM, respectively.

Turning to `O=C(NCc1cc(C2CC2)n[nH]1)c1nn(-c2cccc(Cl)c2)c2c1CCN(c1cccc(CN3CCCCC3)c1)C2=O` [Example 1237, 1-(3-chlorophenyl)-N-((3-cyclopropyl-1H-pyrazol-5-yl)methyl)-7-oxo-6-(3-(piperidin-1-ylmethyl)phenyl)-4,5,6,7-tetrahydro-1H-pyrazolo[3,4-c]pyridine-3-carboxamide], the IC50 in assay [1] is 0.1 to 0.3 µM; in assay [2], over 40 µM.

In the case of `O=C(NCC1CC1)c1nn(-c2cccc(Cl)c2)c2c1CCN(c1ccc3c(c1)CN(C1COC1)CC3)C2=O` [Example 1032, 1-(3-chlorophenyl)-N-(cyclopropylmethyl)-6-(2-(oxetan-3-yl)-1,2,3,4-tetrahydroisoquinolin-7-yl)-7-oxo-4,5,6,7-tetrahydro-1H-pyrazolo[3,4-c]pyridine-3-carboxamide], the IC50 is 0.3 to 1 µM in assay [1] and over 40 µM in assay [2].

`O=C(NCC1CC1)c1nn(-c2cccc(Cl)c2)c2c1CCN(c1ccc3c(c1)CN(CC1CC1)CC3)C2=O` [Example 1036, 1-(3-chlorophenyl)-N-(cyclopropylmethyl)-6-(2-(cyclopropylmethyl)-1,2,3,4-tetrahydroisoquinolin-7-yl)-7-oxo-4,5,6,7-tetrahydro-1H-pyrazolo[3,4-c]pyridine-3-carboxamide]: the IC50 is 0.3 to 1 µM in assay [1] and over 40 µM in assay [2].
